Assay results published in ChEMBL document CHEMBL4706524, “Discovery of sulfonyl hydrazone derivative as a new selective PDE4A and PDE4D inhibitor by lead-optimization approach on the prototype LASSBio-448: In vitro and in vivo preclinical studies” (Eur J Med Chem, 2020).

What was measured:
[1] = target: 3',5'-cyclic-AMP phosphodiesterase 4A (Homo sapiens, UniProt P27815); assay: Inhibition of PDE4A (unknown origin)
[2] = target: T1, 3',5'-cyclic-AMP phosphodiesterase 4B (Homo sapiens, UniProt Q07343); assay: Inhibition of PDE4B (unknown origin)
[3] = target: T2, 3',5'-cyclic-AMP phosphodiesterase 4C (Homo sapiens, UniProt Q08493)
Description: Inhibition of PDE4C (unknown origin)

[4] = target: T3, 3',5'-cyclic-AMP phosphodiesterase 4D (Homo sapiens, UniProt Q08499)
Description: Inhibition of PDE4D (unknown origin)

Homo sapiens [5] = species on record: Homo sapiens; assay: Inhibition of human recombinant PDE4A1A using FAM-cAMP as substrate measured after 1 hr by IMAP TR-FRET assay relative to control
Mus musculus [6] = assay: Antiinflammatory activity against A/J mouse assessed as decrease in LPS-induced TNFalpha production in lungs at 3 umol/kg, po treated via gavage for 1 hr before LPS stimulation and measured after 24 hrs by ELISA relative to control; assay type: functional; conditions: 25 h
[7] = Inhibition of human recombinant PDE4A1A using FAM-cAMP as substrate measured after 1 hr by IMAP TR-FRET assay
in vitro = conditions: PAMPA
[8] = pampa, 8 h
[9] = target: T1, 3',5'-cyclic-AMP phosphodiesterase 4B; assay: Inhibition of human recombinant PDE4B1 using FAM-cAMP as substrate at 10 uM measured after 1 hr by IMAP TR-FRET assay
[10] = target: T3, 3',5'-cyclic-AMP phosphodiesterase 4D; assay: Inhibition of human recombinant PDE4D3 using FAM-cAMP as substrate measured after 1 hr by IMAP TR-FRET assay relative to control
[11] = target: T3, 3',5'-cyclic-AMP phosphodiesterase 4D; assay: Inhibition of human recombinant PDE4D3 using FAM-cAMP as substrate at 10 uM measured after 1 hr by IMAP TR-FRET assay
Mus musculus [12] = assay: Antiinflammatory activity against A/J mouse assessed as decrease in LPS-induced airway hyperreactivity at 3 umol/kg, po treated via gavage for 1 hr before LPS stimulation measured after 24 hrs by whole body plethysmography relative to control; assay type: functional; conditions: 25 h
Homo sapiens [13] = species on record: Homo sapiens; assay: Inhibition of human recombinant PDE4A1A using FAM-cAMP as substrate at 10 uM measured after 1 hr by IMAP TR-FRET assay
[14] = target: T2, 3',5'-cyclic-AMP phosphodiesterase 4C; assay: Inhibition of human recombinant PDE4C using FAM-cAMP as substrate at 10 uM measured after 1 hr by IMAP TR-FRET assay

T3 sequence (Q08499 whole entry): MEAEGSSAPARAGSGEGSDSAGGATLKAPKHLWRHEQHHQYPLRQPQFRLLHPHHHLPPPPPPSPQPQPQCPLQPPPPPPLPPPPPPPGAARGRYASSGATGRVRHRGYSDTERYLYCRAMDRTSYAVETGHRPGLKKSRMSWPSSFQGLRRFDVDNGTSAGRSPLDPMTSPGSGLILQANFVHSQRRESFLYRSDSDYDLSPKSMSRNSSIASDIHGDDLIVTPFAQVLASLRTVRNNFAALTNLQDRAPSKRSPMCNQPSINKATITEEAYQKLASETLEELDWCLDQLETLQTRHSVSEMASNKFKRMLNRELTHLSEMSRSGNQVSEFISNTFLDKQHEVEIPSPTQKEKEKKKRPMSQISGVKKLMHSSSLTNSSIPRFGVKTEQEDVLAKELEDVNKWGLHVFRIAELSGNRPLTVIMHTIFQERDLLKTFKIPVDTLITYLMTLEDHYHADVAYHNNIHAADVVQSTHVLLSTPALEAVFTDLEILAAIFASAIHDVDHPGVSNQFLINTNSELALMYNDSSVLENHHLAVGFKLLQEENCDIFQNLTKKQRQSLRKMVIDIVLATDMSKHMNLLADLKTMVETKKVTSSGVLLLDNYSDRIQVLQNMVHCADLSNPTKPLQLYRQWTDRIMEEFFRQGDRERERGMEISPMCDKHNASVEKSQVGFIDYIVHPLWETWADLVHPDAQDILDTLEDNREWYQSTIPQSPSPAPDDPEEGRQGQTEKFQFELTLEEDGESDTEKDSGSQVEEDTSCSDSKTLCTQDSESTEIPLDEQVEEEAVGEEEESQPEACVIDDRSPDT
T2 sequence (Q08493 whole entry): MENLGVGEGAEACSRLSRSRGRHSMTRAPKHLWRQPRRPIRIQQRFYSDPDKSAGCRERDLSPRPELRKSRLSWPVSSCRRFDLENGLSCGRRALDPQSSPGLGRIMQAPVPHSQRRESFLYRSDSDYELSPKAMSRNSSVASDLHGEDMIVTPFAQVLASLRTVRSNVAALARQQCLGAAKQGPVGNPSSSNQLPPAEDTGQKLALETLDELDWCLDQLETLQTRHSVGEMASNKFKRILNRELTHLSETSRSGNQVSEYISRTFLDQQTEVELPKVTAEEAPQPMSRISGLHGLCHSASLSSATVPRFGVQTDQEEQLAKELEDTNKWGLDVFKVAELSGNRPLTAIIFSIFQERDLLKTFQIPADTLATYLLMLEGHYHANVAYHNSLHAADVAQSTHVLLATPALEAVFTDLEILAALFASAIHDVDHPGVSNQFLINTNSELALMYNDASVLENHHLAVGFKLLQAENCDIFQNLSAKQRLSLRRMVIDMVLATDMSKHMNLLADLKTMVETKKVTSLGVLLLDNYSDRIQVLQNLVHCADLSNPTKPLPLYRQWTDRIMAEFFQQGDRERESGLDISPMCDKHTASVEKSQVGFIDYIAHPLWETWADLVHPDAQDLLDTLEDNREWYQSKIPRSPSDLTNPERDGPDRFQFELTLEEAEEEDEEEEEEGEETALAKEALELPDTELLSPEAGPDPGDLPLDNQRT
T1 sequence (Q07343 whole entry): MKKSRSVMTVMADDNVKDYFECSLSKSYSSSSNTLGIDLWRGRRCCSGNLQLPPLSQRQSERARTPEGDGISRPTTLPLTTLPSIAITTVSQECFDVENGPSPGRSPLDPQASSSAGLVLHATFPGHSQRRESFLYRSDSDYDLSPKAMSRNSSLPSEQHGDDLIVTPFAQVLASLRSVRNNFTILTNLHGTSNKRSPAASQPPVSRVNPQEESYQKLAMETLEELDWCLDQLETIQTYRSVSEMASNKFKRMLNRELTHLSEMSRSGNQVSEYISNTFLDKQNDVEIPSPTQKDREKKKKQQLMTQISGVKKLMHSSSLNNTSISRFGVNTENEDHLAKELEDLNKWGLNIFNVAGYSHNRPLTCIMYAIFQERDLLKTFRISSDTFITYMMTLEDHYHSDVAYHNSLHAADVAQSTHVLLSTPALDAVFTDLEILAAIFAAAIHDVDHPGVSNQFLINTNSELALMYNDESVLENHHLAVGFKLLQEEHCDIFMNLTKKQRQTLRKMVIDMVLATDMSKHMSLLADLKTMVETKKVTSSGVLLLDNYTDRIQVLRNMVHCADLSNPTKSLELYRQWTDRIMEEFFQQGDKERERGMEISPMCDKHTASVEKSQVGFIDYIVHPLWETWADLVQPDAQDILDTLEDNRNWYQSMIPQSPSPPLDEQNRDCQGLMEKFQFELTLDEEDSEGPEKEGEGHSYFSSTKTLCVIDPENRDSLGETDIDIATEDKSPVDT
Chain of 3',5'-cyclic-AMP phosphodiesterase 4A (P27815 whole entry): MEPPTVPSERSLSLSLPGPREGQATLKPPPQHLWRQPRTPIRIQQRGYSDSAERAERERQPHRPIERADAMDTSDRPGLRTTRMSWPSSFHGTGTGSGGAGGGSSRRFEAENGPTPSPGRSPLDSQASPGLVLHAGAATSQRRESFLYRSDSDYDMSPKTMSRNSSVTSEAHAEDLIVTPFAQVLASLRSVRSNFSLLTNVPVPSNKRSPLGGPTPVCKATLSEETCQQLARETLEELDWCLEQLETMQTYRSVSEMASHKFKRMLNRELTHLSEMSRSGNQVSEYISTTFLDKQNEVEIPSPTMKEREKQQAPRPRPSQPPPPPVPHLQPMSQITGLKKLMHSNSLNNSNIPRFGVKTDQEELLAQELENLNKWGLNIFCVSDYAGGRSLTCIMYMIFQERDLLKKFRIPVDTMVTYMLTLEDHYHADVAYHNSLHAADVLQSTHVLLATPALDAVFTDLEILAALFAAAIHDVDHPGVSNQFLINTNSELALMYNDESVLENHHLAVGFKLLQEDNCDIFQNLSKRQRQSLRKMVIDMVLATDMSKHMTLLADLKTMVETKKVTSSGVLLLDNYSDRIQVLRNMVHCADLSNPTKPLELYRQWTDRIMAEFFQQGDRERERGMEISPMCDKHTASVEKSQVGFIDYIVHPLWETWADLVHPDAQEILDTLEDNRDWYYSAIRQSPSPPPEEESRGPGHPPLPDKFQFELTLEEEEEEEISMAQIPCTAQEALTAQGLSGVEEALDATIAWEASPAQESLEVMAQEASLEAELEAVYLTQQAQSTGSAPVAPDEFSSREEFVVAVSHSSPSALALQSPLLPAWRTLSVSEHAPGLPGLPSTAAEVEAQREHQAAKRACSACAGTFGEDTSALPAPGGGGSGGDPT

Compound: C[C@@H](Oc1ccc(CNC(=O)c2cccnc2Oc2ccc3c(c2)OCO3)c(F)c1)C(=O)O
- IC50 [1]: 310 nM
- IC50 [2]: 287 nM
- IC50 [3]: 3860 nM
- IC50 [4]: 3 nM

Compound: COc1ccc([C@]2(C#N)CC[C@@H](C(=O)O)CC2)cc1OC1CCCC1 [CILOMILAST]
- Emax (Homo sapiens [5]): 99%
- inhibition in vivo at 3 µmol/kg (Mus musculus [6]): 98.9%
- IC50 [7]: 200 nM
- Papp at 8 h (in vitro): 7.29 ×10⁻⁶ cm/s
- Drug absorption [8]: 93.74%
- inhibition [9]: 91.3%
- Emax [10]: 99%
- inhibition [11]: 98.8%
- inhibition in vivo at 3 µmol/kg (Mus musculus [12]): 94%
- inhibition (Homo sapiens [13]): 91.3%
- inhibition [14]: 98.5%
